Source: ChEMBL document CHEMBL4402539, “Biological effects and activity optimization of small-molecule, drug-like synthetic anion transporters” (Eur J Med Chem, 2019)

Assays:
Assay type in all cases: functional, cell-based
HeLa = experiment: Cytotoxicity in human HeLa cells assessed as reduction in cell viability after 18 hrs by MTT assay
CAPAN-1 = experiment: Cytotoxicity in human Capan1 cells assessed as reduction in cell viability after 18 hrs by MTT assay; details: CAPAN-1, 18 h
HCT-116 = experiment: Cytotoxicity in human HCT116 cells assessed as reduction in cell viability after 18 hrs by MTT assay; details: HCT-116, 18 h
A549 = experiment: Cytotoxicity in human A549 cells assessed as reduction in cell viability after 18 hrs by MTT assay; details: A549, 18 h

Measured: IC50

CC1(C)c2ccc([nH]2)C2(C)CCCCNC(=O)c3cccc(n3)C(=O)NCCCCC(C)(c3ccc1[nH]3)c1ccc([nH]1)C(C)(C)c1ccc2[nH]1
10 to 15 µM: all assays above

CC1(C)c2ccc([nH]2)C2(C)CCCNC(=O)c3cccc(n3)C(=O)NCCCC(C)(c3ccc1[nH]3)c1ccc([nH]1)C(C)(C)c1ccc2[nH]1
10 to 15 µM: all assays above
